The results in this text go back to ChEMBL document CHEMBL4007481, “Synthesis and antibacterial activity of 3-benzylamide derivatives as FtsZ inhibitors” (Bioorg Med Chem Lett, 2017).

Assay [1] concerns Mycolicibacterium smegmatis. In words: Inhibition of FtsZ in Mycobacterium smegmatis ATCC 607 assessed as growth inhibition at 100 ug per disc after 18 to 24 hrs by paper disc agar diffusion assay.
The target of assay [2] is T1, Cell division protein FtsZ (Staphylococcus aureus) (UniProt P0A031).
T1 sequence (whole entry): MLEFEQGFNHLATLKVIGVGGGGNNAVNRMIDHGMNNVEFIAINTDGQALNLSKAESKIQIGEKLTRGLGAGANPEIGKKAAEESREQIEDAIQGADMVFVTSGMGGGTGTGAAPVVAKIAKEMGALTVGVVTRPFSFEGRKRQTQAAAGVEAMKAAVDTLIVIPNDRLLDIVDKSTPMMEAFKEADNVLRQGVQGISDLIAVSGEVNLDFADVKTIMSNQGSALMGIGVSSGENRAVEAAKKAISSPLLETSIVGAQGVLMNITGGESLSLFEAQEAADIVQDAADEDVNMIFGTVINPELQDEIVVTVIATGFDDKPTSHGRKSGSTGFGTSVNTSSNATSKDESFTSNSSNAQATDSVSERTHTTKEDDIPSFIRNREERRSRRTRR
The experiment in a line: Inhibition of FtsZ in Staphylococcus aureus ATCC 6538P assessed as growth inhibition at 100 ug per disc after 18 to 24 hrs by paper disc agar diffusion assay.

Assay [3] concerns Escherichia coli ATCC 25922. The experiment in a line: Inhibition of FtsZ in Escherichia coli ATCC 25922 assessed as growth inhibition at 100 ug per disc after 18 to 24 hrs by paper disc agar diffusion assay.
Another assay deals with Candida albicans. The experiment in a line: Antifungal activity against Candida albicans ATCC 10231 at 100 ug per disc after 3 to 5 days by paper disc agar diffusion assay. It counts as functional.
The next assay relates to Aspergillus niger. In words: Antifungal activity against Aspergillus niger ATCC 16404 at 100 ug per disc after 3 to 5 days by paper disc agar diffusion assay. It counts as functional.
Assay [4] concerns Bacillus subtilis subsp. spizizenii ATCC 6633 = JCM 2499. In words: Inhibition of FtsZ in Bacillus subtilis ATCC 6633 assessed as growth inhibition at 100 ug per disc after 18 to 24 hrs by paper disc agar diffusion assay.
The subject of a further assay is Klebsiella pneumoniae. The experiment in a line: Inhibition of FtsZ in Klebsiella pneumoniae ATCC 9621 assessed as growth inhibition at 100 ug per disc after 18 to 24 hrs by paper disc agar diffusion assay.
In the next assay the test system is Pseudomonas aeruginosa. In words: Inhibition of FtsZ in Pseudomonas aeruginosa ATCC 9027 assessed as growth inhibition at 100 ug per disc after 18 to 24 hrs by paper disc agar diffusion assay.
A further assay concerns Klebsiella aerogenes. The experiment in a line: Inhibition of FtsZ in Klebsiella aerogenes ATCC 9621 assessed as growth inhibition at 100 ug per disc after 18 to 24 hrs by paper disc agar diffusion assay.
In assay [5] the test system is Mycolicibacterium smegmatis. In words: Inhibition of FtsZ in Mycobacterium smegmatis ATCC 607 assessed as ratio of diameter of zone inhibition of test compound to diameter of zone inhibition of streptomycin at 100 ug per disc after 18 to 24 hrs by paper disc agar diffusion assay.
For assay [6], the system named is Bacillus subtilis subsp. spizizenii ATCC 6633 = JCM 2499. The experiment in a line: Inhibition of FtsZ in Bacillus subtilis ATCC 6633 assessed as ratio of diameter of zone inhibition of test compound to diameter of zone inhibition of tetracycline at 100 ug per disc after 18 to 24 hrs by paper disc agar diffusion assay.

The source made the active and inactive calls. The calls are words filed in the database; no cut-off is given here.

With `NC(=O)c1c(F)ccc(OCCCOC(=O)c2ccccc2)c1F`, the inhibition entry (in assay [1]; in assay [2]; in [3]; in assay [4]; in the assay with Klebsiella pneumoniae; in the assay on Pseudomonas aeruginosa) was “inactive” each time. The result in the assay on Candida albicans and in the assay on Aspergillus niger was inactive.

For the molecule `COc1ccc(OC(=O)COc2ccc(F)c(C(N)=O)c2F)cc1`, the inhibition entry (in the assay with Klebsiella aerogenes; in assay [2]; in assay [3]; in the assay with Pseudomonas aeruginosa) was “inactive” each time. In addition, the result in the assay on Candida albicans and with Aspergillus niger was inactive. Besides, the Ratio stood at 0.19 in assay [5] and 0.15 in [6].

As to `NC(=O)c1c(F)ccc(OCCOC(=O)c2ccccc2)c1F`, the inhibition entry (in assay [1]; in [2]; in assay [3]; in assay [4]; in the assay on Klebsiella pneumoniae; in the assay with Pseudomonas aeruginosa) was “inactive” throughout. Further, the result in the assay on Candida albicans and in the assay with Aspergillus niger was inactive.
